Patent US10183062B2, “Treatment for cancer” (The University of Nottingham, priority 2013, dated 2019)
Where two headings read alike, the source gives them in different places.

Key:
[1] = molecular target: NmeNTR, Neisseria meningitidis MC58 nitroreductase (NfnB homolog, Q9K022), wild type, SEQ ID NO: 1 (Neisseria meningitidis, UniProt Q9K022); experiment: CB1954 nitroreductase activity, HPLC, purified His-tagged NmeNTR; format: biochemical; conditions: CB1954, cofactor NADH; 37° C., pH 7.0
Source text: Genes encoding homologs of E. coli NfnB and Bacillus amyloliquefaciens YwrO from several bacteria were cloned into an E. coli expression vector for screening (see Methods below). These were the NfnB homolog from Neisseria meningitidis MC58 (‘NmeNTR’, accession number Q9K022), the NfnB homolog from Haemophilus somnus 129PT (‘HsoNTR’, accession number ZP_00122352.1), the NfnB homolog from Burkholderia fungorum LB400 (‘BfuNTR’, accession number ZP_00029570.1), the YwrO homolog from Vibrio cholerae (‘VchYwrO’, accession number Q9KNX3), the YwrO homolog from Rhodobacter sphaeroides (‘RspYwrO’, accession number ZP_00007082.1), and two YwrO homologs from Pseudomonas aeruginosa (‘PaeYwrO1’, accession number Q9HUJ0; and ‘PaeYwrO2’, accession number Q9I4B3).
For determination of CB1954 nitroreductase kinetic parameters, six-histidine affinity-tagged enzymes were purified from cell lysates purified using a Novagen His-Bind kit in accordance with the manufacturer's instructions.
CB1954 nitroreductase activity was determined essentially as described by Anlezark (6). Reaction mixtures containing 500 μM NADH or NADPH and a small quantity of enzyme (either crude lysate or purified enzyme) were assembled in pre-warmed (to 37° C.) 100 mM sodium phosphate buffer (pH 7.0), and started with the addition of 100 μM CB1954 and prompt mixing.
To determine initial reaction rates during preliminary screening of CB1954 nitroreductase candidates, aliquots of the reaction mixtures taken at various times were injected into a Partisphere SCX (100×4.7 mm) HPLC column and eluted isocratically at 2 ml/min with 130 mM NaH2PO4 (pH 5.0). Eluates were continuously monitored at 260 nm and 325 nm, and the absorbance spectra of eluting components recorded using a photodiode array detector. Peaks were identified with reference to standards and/or by their known absorbance spectra (7) and anticipated column retention times as appropriate. Rates were determined based on the decrease in the area under the CB1954 peak over time, normalised to the known starting concentration of 100 μM using the peak from the zero timepoint sample.
To determine initial reaction rates and CB1954 nitroreduction products in later experiments with purified proteins, peaks were identified as before, and rates were determined based on the increase in the area under the 4-hydroxylamine derivative peak over time, normalised using enzymatically-synthesised 4-hydroxylamine standards.
NmeNTR and HsoNTR were each affinity-tagged, over-expressed, purified, and the CB1954 nitroreductase activities of the purified proteins characterized using the HPLC assay. The reaction products and kinetic parameters of these enzymes with respect to CB1954 and NADH were determined (Table 1). […] Moreover, the kinetic parameters of HsoNTR and NmeNTR differ dramatically from those of E. coli NfnB and other published enzymes (Table 1). […] NmeNTR would therefore approach saturation with CB1954 in a therapeutic regime using the maximum clinically-recommended dose, so the prodrug would be efficiently activated and high levels of tumour-specific cytotoxicity achieved.

HCT116 tumours = experiment: Mouse xenograft tumour growth delay with CB1954; format: in vivo, NMRI nu/nu mice (human colorectal HCT116 carcinoma)
Protocol: Human colorectal HCT116 carcinoma cells were grown in DMEM medium supplemented with 10% FBS, trypsinized and injected subcutaneously in 100 μl PBS/ . . . % matrigel at a concentration of 5.10^6 cells in the abdominal flank of adult NMRI nu/nu mice. As soon as tumours were palpable, tumour volumes were determined three times per week by measuring three orthogonal diameters using calipers. Volumes were calculated according to the formula V=A×B×C×/6. All experiments were conducted in accordance with local institutional guidelines of the University of Leuven, approved by the animal ethics committee and procedures were according to the guidelines defined by the UKCCCR (12). Treatment was initiated when tumours reached a volume of ˜250 mm^3. Five days post spore injection (5.10^7 cfu/100 μl), sham or prodrug treatment was started. CB1954 was prepared as described previously (13) and administered intraperitoneally (i.p.) at a concentration of 15 mg/kg for five consecutive days. At the end of the follow-up period, tumours and normal tissues were excised, ground and serially diluted to determine colonization levels (14). Tumour growth delay was determined for each individual tumour within the different groups as the time necessary to reach three times their initial volume at the start of the treatment. One-way ANOVA with a Tukey's posttest was used to determine statistical significance between the different growth curves.
Since strains E1 and N1 express stably-integrated NTR under the regulatory control of a strong promoter without inclusion of any antibiotic resistance gene, it was next determined whether administration of these clinically-applicable strains in combination with prodrug administration to tumour-bearing animals would result in anti-tumour efficacy. It was first evaluated whether inactivation of pyrE affected the tumour-colonizing capacity of systemically administered spores. Mice bearing subcutaneously transplanted HCT116 tumours were injected and tumour colonization tested seven days later. […] On average 10^9 cfu were found per gram of tumour tissue. Colonization was also confirmed by gram staining. In tumours, C. sporogenes vegetative cells are visible as purple, gram-positive rods (FIG. 3 C). As expected, C. sporogenes vegetative cells could not be detected in any of the normal tissues investigated. […] Spores were collected, quantified and intravenously administered at a concentration of 5.10×10^7 per animal when tumours reached a volume of ˜250 mm^3, followed five days later by sham or prodrug administration. […] In all cases, strain specific signals could be detected thereby confirming stability of the integrated construct.

[2] = system: E. coli NfsA nitroreductase; conditions: Vass et al., 2009, cited from earlier work; for Km: read-out: Km^CB1954
[3] = cited from earlier work

Sequence of NmeNTR, Neisseria meningitidis MC58 nitroreductase (NfnB homolog, Q9K022), wild type, SEQ ID NO: 1 (Q9K022 entry or part of it): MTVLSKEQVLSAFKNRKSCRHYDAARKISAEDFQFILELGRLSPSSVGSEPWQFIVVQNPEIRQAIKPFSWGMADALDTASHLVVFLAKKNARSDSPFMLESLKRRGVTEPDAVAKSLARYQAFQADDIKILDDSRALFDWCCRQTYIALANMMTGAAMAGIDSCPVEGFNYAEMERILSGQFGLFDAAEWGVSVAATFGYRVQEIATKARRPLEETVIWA

## NC(=O)c1cc(N2CC2)c([N+](=O)[O-])cc1[N+](=O)[O-] [CB1954, 5-(aziridin-1-yl)-2,4-dinitrobenzamide]
[1]
  Kcat: 4.04 (NADH) S^−1
HCT116 tumours; CB1954 15 mg/kg i.p. x 5 days + E1 (E. coli NfnB) spores
  tumours completely disappeared, E1/CB1954 group: two out of 16
HCT116 tumours; CB1954 15 mg/kg i.p. x 5 days + N1 (NmeNTR) spores
  tumours completely disappeared, N1/CB1954 group: four out of 16
HCT116 tumours; CB1954 15 mg/kg i.p. x 5 days, pyrE mutant spores
  tumour growth delay, pyrE mutant spores alone or with CB1954: small growth delay
HCT116 tumours; CB1954 15 mg/kg i.p. x 5 days, E1 (NfnB) or N1 (NmeNTR) C. sporogenes spores, most pronounced for N1 (p<0.001, one way ANOVA)
  tumour growth delay, E1 or N1 with CB1954: significant growth delay
[2]; CB1954, cofactor NADH
  Kcat: 2.60 (NADH) S^−1
[2]; CB1954, cofactor NADPH
  Kcat: 20.9 (NADPH) S^−1
[2]; cofactor NADH
  Km: 18 µM
[2]; cofactor NADPH
  Km: 140 µM
[3]; in vivo
  maximum concentration which can be safely achieved in patient serum: 6.3 µM
[3]; safe doses
  peak concentrations in patient sera: 1 to 10 µM
